Assay results from US12195745B2, “Compositions and methods for modulating transduction efficiency of adeno-associated viruses” (Massachusetts Eye and Ear Infirmary, priority 2018, dated 2025).

How the values were obtained:
[1] = tested on: Huh7 cells; experiment: Inhibitor pre-treatment, then Neuraminidase from Vibrio cholera, then AAV transduction; format: cell-based, human; details: 2 mM inhibitor 24 h, then 2 h Neuraminidase from Vibrio cholera
Procedure: Briefly, 10,000 cells per well were plated in 96-well plates 1 day prior to inhibitor treatment. Cells were incubated with the indicated concentration of Zanamivir (Sigma SML0492) or DANA (EMD Millipore 252926) for 24 hours prior to transduction in a total volume of 100 μL D10. When indicated, control or inhibitor treated cells were treated with 50 mU/mL Neuraminidase from Vibrio cholera Type III (Sigma Aldrich, Cat#N7885) in serum-free DMEM, followed by AAV transduction as described.
Because NEU1 and CTSA play a role in cellular glycosylation states, confirmation was desired that the entry defect was not due to an overall alteration in glycosylation at the cell surface, leading to an attachment, defect. To do this, cells were first pre-treated for 24 h with Zanamivir or DANA, followed by treatment with a neuraminidase from Vibrio cholera to remove any sialic acid that may have accumulated at the cell surface due to NEU1 inhibition.
The indicated pre-chilled vector was then added to cells on ice, incubated for 1 hour for the vectors to undergo attachment, unbound vector was washed away using ice-cold PBS, then transduction was allowed to proceed and vector transduction assessed in the different treatment conditions by fold-change relative to untreated control cells via luciferase assay. […]

[2] = tested on: Huh7 cells; experiment: Neuraminidase inhibitor pre-treatment of Huh7 cells followed by AAV transduction (luciferase); format: cell-based, human; details: for effect on transduction, short pre-treatment: 1 hour pre-treatment; for effect on AAV4 entry / effect on AAV5 transduction / effect on Anc80 transduction / decrease of rh32.33 transduction: 24 hours pre-treatment, 10,000 VG/cell; for decrease of rh32.33 transduction: CMV.Luciferase.SVPA
Procedure: All luciferase transduction assays were done by seeding 10,000 cells per well in black-bottom 96 well plates overnight. When indicated, cells were pre-incubated with 200 pfu/cell of WT hAd5 (University of Pennsylvania Vector core) in D10 for two hours, then hAd5-containing medium was removed prior to transduction. Cells were transduced with either AAV at 1×10^4 VG/cell in 50 μL serum-free DMEM (AAVR rescue experiments) for 1 h at 37° C., then D10 was added to a total volume of 200 μL, or 100 μl per well of crude virus prep (chimeric, and point mutant capsid experiments) was added for 1 h at 37° C., removed, then D10 was added. Transduction levels were analyzed by luciferase assay 48 hours post-transduction.
Two days post-transduction, cell culture medium was removed and cells were lysed in 20 μL per well of 1× Reporter Lysis Buffer (Promega, Cat#), then frozen at −80° C. After thaw, ffLuc expression was measured in Relative Light Units/s on a Synergy H1 Hybrid Multi-Mode Microplate reader using 100 μL luciferin buffer [200 mM Tris pH 8, 10 mM MgCl2, 300 μM ATP, 1× Firefly Luciferase signal enhancer (Thermo Cat#16180), and 150 μg/mL D-Luciferin].
Because NEU1 is an enzyme and CTSA, also identified in the entry screen (FIG. 5C), is required for maintaining the catalytically active conformation of NEU1 (D'Azzo et al., 1982, PNAS USA, 79:4535-9; and Vinogradova et al., 1998, Biochem. J. 330(Pt 2):641-50), whether enzymatic activity of NEU1 is required for its function was tested in rh32.33 and AAV4 entry. Two different sialic acid analog neuraminidase inhibitor compounds were used, Zanamivir (von Itzstein et al., 1993, Nature, 363:418-23) and DANA (Meindl et al., 1974, Virology, 58:457-63), to do a dose response on Huh7 cells and assess the effect on entry of different AAVR dependent and AAVR independent serotypes. Two different AAVR-dependent serotypes, AAV5 and Anc80, and two AAVR-independent serotypes, rh32.33 and AAV4, were tested. Importantly, AAV4 and AAV5 were examined because both AAVs use sialic acid as an attachment factor (Kaludov et al., 2001, J. Virol., 75:6884-93; and Walters et at, 2001, J. Biol. Chem., 276:20610-6) yet differ in their AAVR dependence.
Briefly, 10,000 cells per well were plated in 96-well plates 1 day prior to inhibitor treatment. […] When indicated, control or inhibitor treated cells were treated with 50 mU/mL Neuraminidase from Vibrio cholera Type III (Sigma Aldrich, Cat#N7885) in serum-free DMEM, followed by AAV transduction as described.

Row | SMILES | reversal of rh32.33 entry inhibition after neuraminidase treatment [1] | effect on transduction, short pre-treatment [2] | effect on AAV4 entry [2] | effect on AAV5 transduction [2] | effect on Anc80 transduction [2] | decrease of rh32.33 transduction [2]
1 | CC(=O)N[C@H]1[C@H]([C@H](O)[C@H](O)CO)OC(C(=O)O)=C[C@@H]1O [DANA] | a reversal of entry inhibition was not observed | did not show any decrease in transduction | slightly decreased AAV4 entry | Neither of the AAVR-dependent serotypes, AAV5 or Anc80, showed a decrease in transduction | Neither of the AAVR-dependent serotypes, AAV5 or Anc80, showed a decrease in transduction | roughly ten-fold
2 | CC(=O)N[C@H]1[C@H]([C@H](O)[C@H](O)CO)OC(C(=O)O)=C[C@@H]1N=C(N)N [Zanamivir] | a reversal of entry inhibition was not observed | did not show any decrease in transduction | slightly decreased AAV4 entry | Neither of the AAVR-dependent serotypes, AAV5 or Anc80, showed a decrease in transduction | Neither of the AAVR-dependent serotypes, AAV5 or Anc80, showed a decrease in transduction | roughly ten-fold
